Test results published in publication PMC4027214 (2014).

What was measured:
[1] = test system: TFF1-ERE (DNA, duplex) AGGTCACGGTGGCCA/TGGCCACCGTGACCT; test: NMR titration and solution structure; conditions: 50 mM sodium phosphate (Na+); pH 7, 25 °C; bis-intercalation, each drug one strong and one weak intercalation site
[2] = test system: TFF1-ERE (DNA, duplex) AGGTCACGGTGGCCA/TGGCCACCGTGACCT; test: fluorescent intercalator displacement (FID); conditions: 5 mM sodium phosphate (Na+); pH 7, 25 °C; ethidium bromide displaced; DNA 16.7 μM; fit assumes KD1 = KD2; apparent

binding [1]: yes | KD [2]: ~ 9.65 × 10^−7 M
SMILES: Cc1cccc2nc3cccc(C(=O)NCCNCCNCCNC(=O)c4cccc5nc6cccc(C)c6nc45)c3nc12
